Test system: ApoA-I mRNA
Test: Quantification of ApoA-I mRNA in HepG2 cells (real-time PCR)
Format: cell-based
Set-up: key: Active: An active compound was defined as one that caused a ≧20% increase in ApoA-I mRNA at a concentration less than or equal to 100 μM
Settings: fold induction relative to DMSO control, concentration less than or equal to 100 μM
Experimental: In this example, ApoA-I mRNA in tissue culture cells was quantitated to measure the transcriptional up-regulation of ApoA-I when treated with a compound of the invention.
HepG2 cells (approximately 2×10^5 per well) were placed in a 24-well plate in approximately 400 μL MEM, supplemented with 0.5% (v/v) FBS, 24 h before addition of the compound of interest. At time of harvesting, the spent media was removed from the HepG2 cells and immediately placed on ice (for immediate use) or at −80° C. (for future use) in ApoA-I and albumin ELISAs. The cells remaining in the plate wells were rinsed in 200 μL PBS. PBS was carefully removed to avoid removing any loosely attached cells.
Once the PBS was removed, 85 μL cell lysis solution was added the cells in each well and incubated for 5-10 minutes at room temperature, to allow for complete cell lysis and detachment. mRNA was then prepared using the “mRNA Catcher PLUS plate” from Invitrogen, according to the protocol supplied. After the last wash, as much wash buffer as possible was aspirated without allowing the wells to dry. Elution Buffer (E3, 80 μL) was then added to each well. mRNA was then eluted by incubating the mRNA Catcher PLUS plate with Elution Buffer for 5 minutes at 68° C. and then immediately placing the plate on ice.
The eluted mRNA isolated was then used in a one-step real-time […] reaction, using components of the Ultra Sense Kit together with Applied Biosystems primer-probe mixes. Real-time PCR data was analyzed, using the Ct values, to determine the fold induction of each unknown sample, relative to the control (that is, relative to the control for each independent DMSO concentration).
An active compound was defined as one that caused a ≧20% increase in ApoA-I mRNA at a concentration less than or equal to 100 μM.

Structure (SMILES) | Effect on ApoA-I mRNA levels
O=c1c2ccccc2nc(-c2ccc3[nH]ccc3c2)n1-c1ccc(OC(F)(F)F)cc1 [Example 76, 2-(1H-indol-5-yl)-3-(4-(trifluoronnethoxy)phenyl)quinazolin-4(3H)-one] | Active
CCC(C)c1ccc(-n2c(-c3ccc(N4CCOCC4)nc3)nc3ccccc3c2=O)cc1 (stereo not drawn) [Example 71, 3-(4-sec-butylphenyl)-2-(6-morpholinopyridin-3-yl)quinazolin-4(3H)-one] | Active
O=c1c2ccccc2nc(-c2cncc(-c3ccccc3)c2)n1-c1ccc(Cl)cc1 [Example 60, 3-(4-chlorophenyl)-2-(5-phenylpyridin-3-yl)quinazolin-4(3H)-one] | Active
CSc1ccc(-n2c(-c3ccc(C)nc3)nc3ccccc3c2=O)cc1 [Example 64, 2-(6-methylpyridin-3-yl)-3-(4-(methylthio)phenyl)quinazolin-4(3H)-one] | Active
CCC(C)c1ccc(-n2c(-c3ccc(CO)nc3)nc3ccccc3c2=O)cc1 (stereo not drawn) [Example 63, 3-(4-sec-butylphenyl)-2-(6-(hydroxymethyl)pyridin-3-yl)quinazolin-4(3H)-one] | Active
O=c1c2ccccc2nc(-c2ccc(Cl)nc2)n1-c1ccc(Cl)cc1 [Example 38, 3-(4-chlorophenyl)-2-(6-chloropyridin-3-yl)quinazolin-4(3H)-one] | Active
Cc1cc(-c2nc3ccccc3c(=O)n2-c2ccc(Cl)cc2)ccc1OCCO [Example 34, 3-(4-chlorophenyl)-2-(4-(2-hydroxyethoxy)-3-methylphenyl)quinazolin-4(3H)-one] | Active
O=c1c2ccccc2nc(-c2cncc(Br)c2)n1-c1ccc(Cl)cc1 [Example 58, 2-(5-bromopyridin-3-yl)-3-(4-chlorophenyl)quinazolin-4(3H)-one] | Active
Cc1ccc(-c2nc3ccccc3c(=O)n2-c2ccc(C(C)C)cc2)cn1 [Example 65, 3-(4-isopropylphenyl)-2-(6-methylpyridin-3-yl)quinazolin-4(3H)-one] | Active
Cc1ccc(-c2nc3ccccc3c(=O)n2-c2ccc(Cl)cc2)cn1 [Example 47, 3-(4-chlorophenyl)-2-(6-methylpyridin-3-yl)quinazolin-4(3H)-one] | Active
CCC(C)c1ccc(-n2c(-c3cccc4[nH]ccc34)nc3ccccc3c2=O)cc1 (stereo not drawn) [Example 90, 3-(4-sec-butylphenyl)-2-(1H-indol-4-yl)quinazolin-4(3H)-one] | Active
CCC(C)c1ccc(-n2c(-c3ccc4[nH]ccc4c3)nc3ccccc3c2=O)cc1 (stereo not drawn) [Example 74, 3-(4-sec-butylphenyl)-2-(1H-indol-5-yl)quinazolin-4(3H)-one] | Active
CC(C)c1ccc(-n2c(-c3ccc4[nH]ccc4c3)nc3ccccc3c2=O)cc1 [Example 77, 2-(1H-indol-5-yl)-3-(4-isopropylphenyl)quinazolin-4(3H)-one] | Active
O=c1c2ccccc2nc(-c2cccc3[nH]ccc23)n1-c1ccc(Cl)cc1 [Example 89, 3-(4-chlorophenyl)-2-(1H-indol-4-yl)quinazolin-4(3H)-one] | Active
CCC(C)c1ccc(-n2c(-c3ccc(C(F)(F)F)nc3)nc3ccccc3c2=O)cc1 (stereo not drawn) [Example 54, 3-(4-sec-butylphenyl)-2-(6-(trifluoromethyl)pyridin-3-yl)quinazolin-4(3H)-one] | Active
COc1ccc(S(=O)(=O)n2ccc3cc(-c4nc5ccccc5c(=O)n4-c4ccc(Cl)cc4)cnc32)cc1 [Example 78, 3-(4-chlorophenyl)-2-(1-(4-methoxyphenylsulfonyl)-1H-pyrrolo[2,3-b]pyridin-5-yl)quinazolin-4(3H)-one] | Active
CCC(C)c1ccc(-n2c(-c3ccc(Cl)nc3)nc3ccccc3c2=O)cc1 (stereo not drawn) [Example 39, 3-(4-sec-butylphenyl)-2-(6-chloropyridin-3-yl)quinazolin-4(3H)-one] | Active
CCC(C)c1ccc(-n2c(-c3cncc(F)c3)nc3ccccc3c2=O)cc1 (stereo not drawn) [Example 37, 3-(4-sec-butylphenyl)-2-(5-fluoropyridin-3-yl)quinazolin-4(3H)-one] | Active
CCC(C)c1ccc(-n2c(-c3cccnc3)nc3ccccc3c2=O)cc1 (stereo not drawn) [Example 35, 3-(4-sec-butylphenyl)-2-(pyridin-3-yl)quinazolin-4(3H)-one] | Active
O=c1c2ccccc2nc(-c2ccc(Cl)nc2)n1-c1ccc(C2CC2)cc1 [Example 70, 2-(6-chloropyridin-3-yl)-3-(4-cyclopropylphenyl)quinazolin-4(3H)-one] | Active
CCC(C)c1ccc(-n2c(-c3cc(C)c(OCCO)c(C)c3)nc3ccccc3c2=O)cc1 (stereo not drawn) [1 and 2, 3-(4-sec-butylphenyl)-2-(4-(2-hydroxyethoxy)-3,5-dimethylphenyl)quinazolin-4(3H)-one] | Active
Cc1ccc(-c2nc3ccccc3c(=O)n2-c2ccc(N(C)C)cc2)cn1 [Example 69, 3-(4-(dimethylamino)phenyl)-2-(6-methylpyridin-3-yl)quinazolin-4(3H)-one] | Active
CCC(C)c1ccc(-n2c(-c3ccc(CN4CCOCC4)nc3)nc3ccccc3c2=O)cc1 (stereo not drawn) [Example 67, 3-(4-sec-butylphenyl)-2-(6-(morpholinomethyl)pyridin-3-yl)quinazolin-4(3H)-one] | Active
CCC(C)c1ccc(-n2c(-c3ccc(N4CCCCC4)nc3)nc3ccccc3c2=O)cc1 (stereo not drawn) [Example 49, 3-(4-sec-butylphenyl)-2-(6-(piperidin-1-yl)pyridin-3-yl)quinazolin-4(3H)-one] | Active
CCC(C)c1ccc(-n2c(-c3ccc4nc(CO)[nH]c4c3)nc3ccccc3c2=O)cc1 (stereo not drawn) [Example 75, 3-(4-sec-butylphenyl)-2-(2-(hydroxymethyl)-1H-benzo[d]imidazol-6-yl)quinazolin-4(3H)-one] | Active
O=c1c2ccccc2nc(-c2ccc(Br)nc2)n1-c1ccc(Cl)cc1 [Example 41, 2-(6-bromopyridin-3-yl)-3-(4-chlorophenyl)quinazolin-4(3H)-one] | Active
CCC(C)c1ccc(-n2c(-c3ccc(OC)nc3)nc3ccccc3c2=O)cc1 (stereo not drawn) [Example 40, 3-(4-sec-butylphenyl)-2-(6-methoxypyridin-3-yl)quinazolin-4(3H)-one] | Active
CCC(C)c1ccc(-n2c(-c3ccc(OCCO)c(C)c3)nc3ccccc3c2=O)cc1 (stereo not drawn) [Example 33, 3-(4-sec-butylphenyl)-2-(4-(2-hydroxyethoxy)-3-methylphenyl)quinazolin-4(3H)-one] | Active
CCC(C)c1ccc(-n2c(-c3cncc(N(CC)CC)c3)nc3ccccc3c2=O)cc1 (stereo not drawn) [Example 59, 3-(4-sec-butylphenyl)-2-(5-(diethylamino)pyridin-3-yl)quinazolin-4(3H)-one] | Active
Cc1cc(-c2nc3ccccc3c(=O)n2-c2ccc(N)cc2)cc(C)c1OCCO [Example 28, 3-(4-aminophenyl)-2-(4-(2-hydroxyethoxy)-3,5-dimethylphenyl)quinazolin-4(3H)-one] | Active

Reference: patent US8952021B2, “Compounds for the prevention and treatment of cardiovascular disease” (Resverlogix Corp., priority 2009, dated 2015)
